What was measured:
[1] = molecular target: T1, thioredoxin reductase (TrxR) (Rattus norvegicus, UniProt O89049); test: Thioredoxin reductase inhibition, colorimetric DTNB assay; assay type: biochemical; conditions: 0.1 nM–2 µM
T1 construct: purchased Sigma-Aldrich
T1 sequence (O89049 1-499): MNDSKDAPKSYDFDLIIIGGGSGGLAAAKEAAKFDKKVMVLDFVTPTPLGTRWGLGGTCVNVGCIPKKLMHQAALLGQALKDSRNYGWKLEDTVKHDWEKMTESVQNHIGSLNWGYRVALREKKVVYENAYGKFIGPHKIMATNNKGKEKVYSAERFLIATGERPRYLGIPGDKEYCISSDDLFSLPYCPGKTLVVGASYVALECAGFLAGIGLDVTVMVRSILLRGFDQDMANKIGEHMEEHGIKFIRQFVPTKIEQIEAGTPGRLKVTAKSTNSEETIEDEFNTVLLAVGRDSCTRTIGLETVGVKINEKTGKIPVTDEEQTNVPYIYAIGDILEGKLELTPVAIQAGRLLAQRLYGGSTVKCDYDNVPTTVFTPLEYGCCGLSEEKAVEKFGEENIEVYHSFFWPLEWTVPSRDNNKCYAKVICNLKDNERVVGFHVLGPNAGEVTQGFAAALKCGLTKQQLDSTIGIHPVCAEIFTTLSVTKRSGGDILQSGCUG
Procedure: The effect of the selected gold complexes on the activity of TrxR was evaluated by a colorimetric DTNB assay as previously described. […] The substituent on the nitrogen atom of the thiazoline ring ([P][AuSEt(=S)] vs. [P][AuSBu(=S)]) and the nature of the exocyclic atom ([P][AuSEt(=S)] vs. [P][AuSEt(=Se)]) seemed to influence the inhibitory effect on the enzyme. The exocyclic selenium atoms of [P][AuSEt(=Se)] seemed to disfavor the intermolecular interaction with the enzyme in relation with the peripheral thione group of [P][AuSEt(=S)].
The […] (TrxR) inhibition assays were performed using a commercial kit from Sigma-Aldrich, introducing minor modifications for a 96-well plate format. The assay is based on the reduction of DTNB (5,5′ dithiobis(2-nitrobenzoic acid)) into TNB (5-thio-2-nitrobenzoic acid) with the concomitant oxidation of NADPH, in a reaction catalyzed by TrxR [92]. The complexes were dissolved in DMSO to prepare serial concentrations in the range of 0.1 nM–2 µM. The reaction mixture (200 µL total volume) contained 11 μL assay buffer (phosphate buffer, pH 7.0 and 50 mM EDTA), 180 µL working buffer (phosphate buffer and 0.25 mM NADPH), 1 μL complexes’ solutions, 2 μL enzyme solution and 6 µL DTNB (0.1 M in DMSO). […] The formation of TNB was monitored at 412 nm with a plate spectrophotometer (Power Wave Xs, Bio-Tek).

Huh7 cells = test: Cell viability (cell confluency, Alamar Blue) of P. berghei-infected Huh7 cells; assay type: cell-based; conditions: 5 µM, in words
Procedure: The in vitro liver stage activity of gold complexes was assessed against P. berghei-infected Huh7 cells, as previously described. Briefly, Huh7 cells were cultured in RPMI-1640 medium supplemented with 10% (v/v) fetal bovine serum, 1% (v/v) penicillin/streptomycin, 1% (v/v) glutamine, 1% (v/v) non-essential amino acids and 10 mM HEPES. On the day prior to infection, Huh7 cells were seeded in 96-well plates at a density of approximately 3.1 × 10^4 cell/cm^2 and incubated at 37 °C, 5% CO2. Stock solutions of the complexes were initially prepared in DMSO and serially diluted in infection medium, i.e., culture medium supplemented with gentamicin (50 µg/mL) and fungizone (0.8 µg/mL), to obtain the test concentrations. As a control, DMSO was diluted in infection medium to a percentage that equals that of the highest compound concentrations tested. These dilutions were added to the cells in triplicates and incubated for 1 h at 37 °C, 5% CO2, after which 1 × 10^4 luciferase-expressing P. berghei sporozoites were added to each well. Plates were centrifuged at 1800× g for 5 min at room temperature and incubated for the duration of the assay. At 46 h post-infection (hpi), the impact of each compound concentration on cell viability was assessed by the Alamar Blue (Invitrogen, Buckinghamshire, UK) assay, according to the manufacturer’s recommendations. Infection was next assessed by bioluminescence, employing the Firefly Luciferase Assay Kit 2.0 (Biotium, Fremont, CA, USA), according to the manufacturer’s recommendations. For IC50 determination, nonlinear regression analysis was employed to fit the normalized results of the dose–response curves, using GraphPad Prism 8 (GraphPad software, La Jolla, CA, USA).

[2] = system: P. falciparum NF54 blood stage; test: In vitro activity against the blood stage of P. falciparum NF54 (SYBR green flow cytometry); assay type: cell-based, Plasmodium falciparum; conditions: 48 h, read-out: IC50 PfNF54
Procedure: Ring-stage synchronized cultures of PfNF54 at 2.5% hematocrit and at approximately 1% parasitemia were incubated with gold complexes or DMSO (vehicle control) in 96 well-plates, for 48 h, at 37 °C in a 5% CO2 and 5% O2 atmosphere. Stock solutions of Chloroquine (positive control), [P][AuSEt(=S)] and [P][AuSEt(=Se)] were prepared in DMSO. Working solutions were prepared from the stock solutions in complete malaria culture medium (CMCM), which consists of RPMI 1640 supplemented with 25 mM HEPES, 2.4 mM L-glutamine, 50 μg/mL gentamicin, 0.5% w/v Albumax, 11 mM glucose, 1.47 mM hypoxanthine and 37.3 mM NaHCO3. For each measurement, 5 µL of the culture (approximately 800,000 cells) was stained with the DNA-specific dye SYBR green I at 1×. After 20 min of incubation, in the dark, the stained sample was analyzed by flow cytometry. For each flow cytometric measurement, approximately 100,000 events were analyzed. All samples were analyzed in triplicate and two independent experiments were performed.

CC(=O)OC[C@H]1O[C@@H]([S-])[C@H](OC(C)=O)[C@@H](OC(C)=O)[C@@H]1OC(C)=O.CCP(CC)CC.[Au+] [Auranofin, reference compound]
IC50 [1]: 26 ± 10 nM

CCn1c2c(sc1=S)[S][Au-]1([S]c3sc(=S)n(CC)c3[S]1)[S]2.c1ccc([P+](c2ccccc2)(c2ccccc2)c2ccccc2)cc1 [[P][AuSEt(=S)]]
toxicity seen as lower cell confluency (Huh7 cells): some degree of toxicity
IC50 [2]: 1060 ± 393 nM

CCn1c2c(sc1=[Se])[S][Au-]1([S]c3sc(=[Se])n(CC)c3[S]1)[S]2.c1ccc([P+](c2ccccc2)(c2ccccc2)c2ccccc2)cc1 [[P][AuSEt(=Se)]]
toxicity seen as lower cell confluency (Huh7 cells): some degree of toxicity
IC50 [2]: 1000 ± 391 nM

— article PMC9266914, “Broad Spectrum Functional Activity of Structurally Related Monoanionic Au(III) Bis(Dithiolene) Complexes” (International Journal of Molecular Sciences, 2022)
